Data reported in PubChem BioAssay AID2060489 (Molecular Pharmacology Branch, DTP, NCI, 2025).

Tested on: 922993-354-T-J3-PDC complex spheroids, viability
Test: Anticancer human tumor 922993-354-T-J3-PDC patient-derived endometrial carcinoma cell line growth inhibition [GQUAD]
Details: for IC50: curve of first compound; for viability, T/C: stronger effect = lower value
Procedure, shortened: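 Multi-cell-type spheroids of tumor cells with HUVEC and mesenchymal stem cells, treated with drug combinations. Concentrations descend in half-log steps from near clinical Cmax, or from 10 microM where Cmax is unknown; viability read-out.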

[1] = second compound 0.0316 µM, first compound 0.0316 µM
[2] = second compound 0.0316 µM, first compound 0.1 µM
[3] = second compound 0.0316 µM, first compound 0.316 µM
[4] = second compound 0.0316 µM, first compound 1 µM
[5] = second compound 0.0316 µM, first compound 3.16 µM
[6] = second compound 0.0316 µM, first compound 10 µM
[7] = second compound 0.1 µM, first compound 0.0316 µM
[8] = second compound 0.1 µM, first compound 0.1 µM
[9] = second compound 0.1 µM, first compound 0.316 µM
[10] = second compound 0.1 µM, first compound 1 µM
[11] = second compound 0.1 µM, first compound 3.16 µM
[12] = second compound 0.1 µM, first compound 10 µM
[13] = second compound 0.316 µM, first compound 0.0316 µM
[14] = second compound 0.316 µM, first compound 0.1 µM
[15] = second compound 0.316 µM, first compound 0.316 µM
[16] = second compound 0.316 µM, first compound 1 µM
[17] = second compound 0.316 µM, first compound 3.16 µM
[18] = second compound 0.316 µM, first compound 10 µM
[19] = second compound 1 µM, first compound 0.0316 µM
[20] = second compound 1 µM, first compound 0.1 µM
[21] = second compound 1 µM, first compound 0.316 µM
[22] = second compound 1 µM, first compound 1 µM
[23] = second compound 1 µM, first compound 3.16 µM
[24] = second compound 1 µM, first compound 10 µM
[25] = second compound 3.16 µM, first compound 0.0316 µM
[26] = second compound 3.16 µM, first compound 0.1 µM
[27] = second compound 3.16 µM, first compound 0.316 µM
[28] = second compound 3.16 µM, first compound 1 µM
[29] = second compound 3.16 µM, first compound 3.16 µM
[30] = second compound 3.16 µM, first compound 10 µM
[31] = second compound 10 µM, first compound 0.0316 µM
[32] = second compound 10 µM, first compound 0.1 µM
[33] = second compound 10 µM, first compound 0.316 µM
[34] = second compound 10 µM, first compound 1 µM
[35] = second compound 10 µM, first compound 3.16 µM
[36] = second compound 10 µM, first compound 10 µM
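Also: spheroids exposed to compounds for seven days.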
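For viability, T/C in this document: 100% = DMSO vehicle control viability.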

SMILES: C#Cc1c(F)ccc2cc(O)cc(-c3ncc4c(N5CC6CCC(C5)N6)nc(OCC56CCCN5CC(F)C6)nc4c3F)c12 (centres undefined) + Cc1cnc(CNC(=O)c2c(=O)c3ccc(N4CCCN(C)CC4)nc3n3c2sc2ccccc23)cn1
- IC50 (second compound 0.0316 µM): > 10000 nM
- IC50 (second compound 0.1 µM): > 10000 nM
- IC50 (second compound 0.316 µM): 89.4 nM
- IC50 (second compound 1 µM): < 31.6 nM
- IC50 (second compound 3.16 µM): < 31.6 nM
- IC50 (second compound 10 µM): < 31.6 nM
- viability, T/C [1]: 75.3%
- viability, T/C [2]: 81.8%
- viability, T/C [3]: 74.4%
- viability, T/C [4]: 70%
- viability, T/C [5]: 86.9%
- viability, T/C [6]: 56.8%
- viability, T/C [7]: 64.3%
- viability, T/C [8]: 70.2%
- viability, T/C [9]: 56%
- viability, T/C [10]: 51.6%
- viability, T/C [11]: 54%
- viability, T/C [12]: 61.1%
- viability, T/C [13]: 61.9%
- viability, T/C [14]: 51.4%
- viability, T/C [15]: 42.5%
- viability, T/C [16]: 37%
- viability, T/C [17]: 41.2%
- viability, T/C [18]: 50.3%
- viability, T/C [19]: 42.1%
- viability, T/C [20]: 45.2%
- viability, T/C [21]: 38.4%
- viability, T/C [22]: 36.2%
- viability, T/C [23]: 50.2%
- viability, T/C [24]: 44.5%
- viability, T/C [25]: 46.6%
- viability, T/C [26]: 43.8%
- viability, T/C [27]: 42.2%
- viability, T/C [28]: 44.6%
- viability, T/C [29]: 45.9%
- viability, T/C [30]: 42.5%
- viability, T/C [31]: 40.5%
- viability, T/C [32]: 38.7%
- viability, T/C [33]: 39.3%
- viability, T/C [34]: 44.8%
- viability, T/C [35]: 40.3%
- viability, T/C [36]: 34.2%

SMILES: CC(=O)O[C@H]1C(=O)[C@@]2(C)[C@H]([C@H](OC(=O)c3ccccc3)[C@]3(O)C[C@H](OC(=O)[C@H](O)[C@@H](NC(=O)c4ccccc4)c4ccccc4)C(C)=C1C3(C)C)[C@]1(OC(C)=O)CO[C@@H]1C[C@@H]2O + Cc1cnc(CNC(=O)c2c(=O)c3ccc(N4CCCN(C)CC4)nc3n3c2sc2ccccc23)cn1
- IC50 (second compound 0.0316 µM): 8750 nM
- IC50 (second compound 0.1 µM): 9750 nM
- IC50 (second compound 0.316 µM): < 31.6 nM
- IC50 (second compound 1 µM): < 31.6 nM
- IC50 (second compound 3.16 µM): < 31.6 nM
- IC50 (second compound 10 µM): < 31.6 nM
- viability, T/C [1]: 84.5%
- viability, T/C [2]: 79.3%
- viability, T/C [3]: 97.9%
- viability, T/C [4]: 83%
- viability, T/C [5]: 70.7%
- viability, T/C [6]: 47.3%
- viability, T/C [7]: 59.2%
- viability, T/C [8]: 86.9%
- viability, T/C [9]: 71.6%
- viability, T/C [10]: 59.3%
- viability, T/C [11]: 74.3%
- viability, T/C [12]: 49.5%
- viability, T/C [13]: 54.5%
- viability, T/C [14]: 49.6%
- viability, T/C [15]: 43.3%
- viability, T/C [16]: 52.7%
- viability, T/C [17]: 73.5%
- viability, T/C [18]: 53.3%
- viability, T/C [19]: 42.8%
- viability, T/C [20]: 58%
- viability, T/C [21]: 51.3%
- viability, T/C [22]: 46.5%
- viability, T/C [23]: 53%
- viability, T/C [24]: 46%
- viability, T/C [25]: 44.1%
- viability, T/C [26]: 50.6%
- viability, T/C [27]: 45.9%
- viability, T/C [28]: 45.1%
- viability, T/C [29]: 67.6%
- viability, T/C [30]: 60.3%
- viability, T/C [31]: 48.1%
- viability, T/C [32]: 45.4%
- viability, T/C [33]: 40.8%
- viability, T/C [34]: 40.2%
- viability, T/C [35]: 46.5%
- viability, T/C [36]: 46.4%
